This note sets out measurements from article PMC10824666 (Nature Cancer, 2023).

Common to all, as to test: biochemical
Holding throughout (design): Eurofins DiscoverX kinase panel, competitive binding assay at 1 uM, percent of DMSO control
Holding throughout (details): competitive binding, percent of DMSO control

The target in one assay is T1, p38 γ (Homo sapiens, UniProt P53778).
T1 construct: gene MAPK12
T1 sequence (P53778 1-367): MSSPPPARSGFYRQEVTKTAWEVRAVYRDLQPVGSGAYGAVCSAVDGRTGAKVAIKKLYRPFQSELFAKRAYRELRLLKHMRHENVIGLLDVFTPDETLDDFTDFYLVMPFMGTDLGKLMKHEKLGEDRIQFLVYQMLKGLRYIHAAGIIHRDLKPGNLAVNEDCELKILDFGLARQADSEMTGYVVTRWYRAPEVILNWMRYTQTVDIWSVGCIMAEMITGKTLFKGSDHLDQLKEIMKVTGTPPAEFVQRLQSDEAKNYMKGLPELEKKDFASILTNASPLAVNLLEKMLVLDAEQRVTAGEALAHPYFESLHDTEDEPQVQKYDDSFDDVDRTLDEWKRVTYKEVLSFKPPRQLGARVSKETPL
The procedure:
(§1) Extended Data Fig. 3 In vitro characterization of potent and selective KIF18A inhibitors. a, KIF18A compounds (1 µM) were assessed across a panel of kinases (n = 96) by a competitive binding assay. Graph presented as percentage of control (POC); dashed line indicates POC value of 30 (n = 1 experiment). b, Tubulin polymerization analysis. Profile of KIF18A compounds (10 µM) relative to DMSO, paclitaxel (5 µM, tubulin stabilizer), or nocodazole (5 µM, tubulin destabilizer). Graphs presented as tubulin fluorescence signal at 440 nm expressed as arbitrary units (a.u.) versus time (min) with area-under-the-curve (AUC) values (n = 1 or 3 independent experiments). c, Mitotic spindle image analysis. […] Representative images were captured with x40 objective (scale bar = 10 µm) (n = 1 experiment). d-f, KIF18A compound effects on HeLa cells. d, Cells were treated for 96 h with DMSO or KIF18A compounds at the indicated concentrations. KIF18A compound concentration-response profiles presented as count relative to the percentage of DMSO control (POC) with count EC50 values (n = 2 independent experiments in duplicate). e, KIF18A protein localization in cells after treatment for 6 hours with DMSO or AM-1882 (0.05 µM). Cells stained to detect DNA, KIF18A, and centrin-3. Representative images of mitotic cells (n = 3 per group) were captured with x60 objective (scale bar = 5 µm) and graphs of line scan measurements were obtained for DNA, KIF18A, and centrin-3 channels expressed as fluorescence intensity (a.u.) versus distance (µm) (n = 1 experiment). f, Mitotic cell fate imaging analysis. HeLa Kyoto cells co-expressing α-tubulin-EGFP and H2B-mCherry proteins released from a G1S block in media containing DMSO or AM-1882 (0.2 µM). Analysis was performed on cells entering the first mitosis (n = 40 cells per group). Graph presented as time in mitosis (h) versus mitotic cell fate, either complete cell division (CCD) or death in mitosis (DiM). Classified cells exiting mitosis by the number of daughter cells and cell death in […] We screened a small-molecule library of diverse compounds for selective inhibitors of KIF18A MT-ATPase motor activity. Two compound hits were discovered that phenocopied the effects of KIF18A KD in cells; these hits are structurally distinct from the KIF18A inhibitor BTB-1 (refs. [27],[28]). […] However, the potency of the KIF18A inhibitors was unaffected by varying ATP and MT concentrations (Extended Data Fig. 2d). This supports our proposed model in which KIF18A inhibitors occupy an allosteric pocket formed by motor helices α4 and α6 close to the motor MT-binding surface. To screen for potential off-target interactions with essential mitotic kinases, three of the KIF18A compounds were profiled against a large panel of kinases. […] We next investigated whether our KIF18A inhibitors affected tubulin polymerization in vitro in the absence of the KIF18A motor. All four KIF18A compounds had tubulin-polymerization profiles similar to that of the DMSO control and distinct from those of the paclitaxel (MT stabilizer) and nocodazole (MT destabilizer) co

In another assay the target is CDK8 (Homo sapiens, UniProt P49336). The procedure: as §1
CDK8, sequence (P49336 whole entry): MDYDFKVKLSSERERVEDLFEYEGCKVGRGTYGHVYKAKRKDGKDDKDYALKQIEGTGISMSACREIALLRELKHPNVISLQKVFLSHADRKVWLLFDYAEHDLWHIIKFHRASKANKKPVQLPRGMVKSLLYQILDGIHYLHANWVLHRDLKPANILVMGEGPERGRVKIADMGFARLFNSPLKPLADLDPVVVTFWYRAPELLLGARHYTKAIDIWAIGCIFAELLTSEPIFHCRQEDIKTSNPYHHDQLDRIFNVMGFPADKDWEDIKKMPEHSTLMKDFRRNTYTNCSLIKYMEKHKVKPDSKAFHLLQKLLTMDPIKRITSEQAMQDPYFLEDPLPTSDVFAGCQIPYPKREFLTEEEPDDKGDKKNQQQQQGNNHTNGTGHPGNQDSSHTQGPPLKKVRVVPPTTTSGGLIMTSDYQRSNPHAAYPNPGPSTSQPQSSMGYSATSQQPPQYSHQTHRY
A further assay addresses MAPK4 (Homo sapiens, UniProt P31152). The procedure: as §1
A further assay concerns the target T2, Tyk-2 (Homo sapiens, UniProt P29597).
T2 construct: gene TYK2
The procedure:
as §1

The target of another assay is FGFR1 (Homo sapiens, UniProt P11362). The procedure: as §1
FGFR1, sequence (P11362 whole entry): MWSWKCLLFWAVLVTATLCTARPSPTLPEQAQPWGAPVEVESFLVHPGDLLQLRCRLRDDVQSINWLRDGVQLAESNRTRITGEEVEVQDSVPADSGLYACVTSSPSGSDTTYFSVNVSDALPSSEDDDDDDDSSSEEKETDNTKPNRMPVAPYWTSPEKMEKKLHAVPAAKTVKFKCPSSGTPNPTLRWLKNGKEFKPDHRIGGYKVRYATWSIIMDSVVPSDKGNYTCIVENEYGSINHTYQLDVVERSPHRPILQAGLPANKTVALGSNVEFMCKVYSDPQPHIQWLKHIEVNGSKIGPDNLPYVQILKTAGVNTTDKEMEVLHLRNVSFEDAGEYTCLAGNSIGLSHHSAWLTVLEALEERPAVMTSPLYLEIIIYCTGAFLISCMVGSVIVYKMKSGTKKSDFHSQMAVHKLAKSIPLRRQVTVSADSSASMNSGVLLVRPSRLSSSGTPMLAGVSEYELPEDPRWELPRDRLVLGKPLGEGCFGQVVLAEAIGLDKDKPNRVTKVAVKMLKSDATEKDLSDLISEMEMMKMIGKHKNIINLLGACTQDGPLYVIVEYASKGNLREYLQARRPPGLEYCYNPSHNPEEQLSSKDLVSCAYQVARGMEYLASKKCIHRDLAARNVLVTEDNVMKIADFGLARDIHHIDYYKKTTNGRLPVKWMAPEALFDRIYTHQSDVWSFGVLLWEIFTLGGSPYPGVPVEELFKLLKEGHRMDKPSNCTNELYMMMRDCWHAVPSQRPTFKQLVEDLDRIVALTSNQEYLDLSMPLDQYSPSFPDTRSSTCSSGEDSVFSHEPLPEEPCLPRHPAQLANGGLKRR
Another assay addresses LYN (Homo sapiens, UniProt P07948). The procedure: as §1
Another assay concerns the target PRKAA1 (Homo sapiens, UniProt Q13131). The procedure: as §1
The mark [1] stands for this setting: read-out: Kinome Profiling performed by Eurofins DiscoverX / AM-0277, 1.0 µM / POC.
[2] abbreviates: read-out: Kinome Profiling performed by Eurofins DiscoverX / AM-1882, 1.0 µM / POC.
The mark [3] stands for this setting: read-out: Kinome Profiling performed by Eurofins DiscoverX / AM-5308, 1.0 µM / POC.

Structures are written as SMILES. Read-outs that look alike come from different tables or passages of the source.

LYN, sequence (P07948 whole entry): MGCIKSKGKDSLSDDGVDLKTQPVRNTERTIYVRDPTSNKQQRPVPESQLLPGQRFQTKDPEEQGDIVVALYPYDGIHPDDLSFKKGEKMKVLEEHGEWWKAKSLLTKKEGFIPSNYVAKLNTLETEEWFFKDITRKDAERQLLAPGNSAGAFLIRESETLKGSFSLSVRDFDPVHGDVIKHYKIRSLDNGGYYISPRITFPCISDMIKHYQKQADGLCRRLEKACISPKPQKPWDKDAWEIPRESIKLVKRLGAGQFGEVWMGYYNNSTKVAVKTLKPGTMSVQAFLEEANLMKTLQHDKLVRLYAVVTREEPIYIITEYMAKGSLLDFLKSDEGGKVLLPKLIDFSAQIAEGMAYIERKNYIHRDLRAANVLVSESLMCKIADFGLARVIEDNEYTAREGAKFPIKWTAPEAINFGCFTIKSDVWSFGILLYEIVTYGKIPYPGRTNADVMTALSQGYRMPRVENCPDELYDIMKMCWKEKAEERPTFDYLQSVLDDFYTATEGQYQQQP
T2 sequence (P29597 whole entry): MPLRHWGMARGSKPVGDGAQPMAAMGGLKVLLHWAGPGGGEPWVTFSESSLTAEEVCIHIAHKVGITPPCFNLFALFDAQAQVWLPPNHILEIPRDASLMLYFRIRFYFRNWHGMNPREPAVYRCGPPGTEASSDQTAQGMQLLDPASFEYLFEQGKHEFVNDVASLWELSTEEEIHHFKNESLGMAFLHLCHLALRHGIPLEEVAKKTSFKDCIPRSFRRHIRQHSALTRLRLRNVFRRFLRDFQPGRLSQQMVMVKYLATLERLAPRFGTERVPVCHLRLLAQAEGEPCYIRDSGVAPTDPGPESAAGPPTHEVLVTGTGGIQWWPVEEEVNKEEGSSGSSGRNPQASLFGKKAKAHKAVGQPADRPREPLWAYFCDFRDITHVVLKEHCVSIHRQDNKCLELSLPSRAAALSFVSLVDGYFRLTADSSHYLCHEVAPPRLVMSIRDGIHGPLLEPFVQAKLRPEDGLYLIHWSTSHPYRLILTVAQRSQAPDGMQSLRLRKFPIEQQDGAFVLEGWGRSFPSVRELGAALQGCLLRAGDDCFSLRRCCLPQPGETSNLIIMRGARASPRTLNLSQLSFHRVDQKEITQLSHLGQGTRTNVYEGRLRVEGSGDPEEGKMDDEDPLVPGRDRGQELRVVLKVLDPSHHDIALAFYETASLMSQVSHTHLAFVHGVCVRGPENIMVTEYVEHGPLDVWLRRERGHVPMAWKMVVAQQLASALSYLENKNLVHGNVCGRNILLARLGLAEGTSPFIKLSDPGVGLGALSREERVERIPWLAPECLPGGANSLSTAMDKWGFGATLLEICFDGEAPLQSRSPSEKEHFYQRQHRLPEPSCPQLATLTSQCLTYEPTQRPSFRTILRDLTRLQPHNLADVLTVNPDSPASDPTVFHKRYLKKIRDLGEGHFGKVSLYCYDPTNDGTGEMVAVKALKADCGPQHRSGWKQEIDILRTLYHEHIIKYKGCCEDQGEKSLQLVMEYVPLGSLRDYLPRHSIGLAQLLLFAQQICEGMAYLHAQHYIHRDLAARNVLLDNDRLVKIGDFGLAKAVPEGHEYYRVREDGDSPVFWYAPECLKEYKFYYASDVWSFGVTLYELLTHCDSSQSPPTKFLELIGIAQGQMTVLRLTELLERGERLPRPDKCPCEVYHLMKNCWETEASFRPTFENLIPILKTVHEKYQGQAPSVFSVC
MAPK4, sequence (P31152 whole entry): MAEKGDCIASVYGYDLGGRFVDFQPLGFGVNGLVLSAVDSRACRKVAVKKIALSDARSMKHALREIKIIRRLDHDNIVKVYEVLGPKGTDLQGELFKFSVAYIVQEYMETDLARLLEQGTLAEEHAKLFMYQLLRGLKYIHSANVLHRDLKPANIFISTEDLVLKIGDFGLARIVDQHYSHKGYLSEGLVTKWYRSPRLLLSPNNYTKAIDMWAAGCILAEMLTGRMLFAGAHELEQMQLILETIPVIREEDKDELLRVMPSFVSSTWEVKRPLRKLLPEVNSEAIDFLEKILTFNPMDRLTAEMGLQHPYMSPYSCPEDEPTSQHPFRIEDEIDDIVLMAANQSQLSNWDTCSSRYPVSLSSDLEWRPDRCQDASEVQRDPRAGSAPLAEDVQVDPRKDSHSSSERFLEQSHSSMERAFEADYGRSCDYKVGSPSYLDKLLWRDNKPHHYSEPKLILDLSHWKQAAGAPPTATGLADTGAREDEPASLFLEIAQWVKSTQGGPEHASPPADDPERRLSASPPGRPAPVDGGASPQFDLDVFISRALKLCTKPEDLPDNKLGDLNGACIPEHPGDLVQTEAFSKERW
PRKAA1, sequence (Q13131 whole entry): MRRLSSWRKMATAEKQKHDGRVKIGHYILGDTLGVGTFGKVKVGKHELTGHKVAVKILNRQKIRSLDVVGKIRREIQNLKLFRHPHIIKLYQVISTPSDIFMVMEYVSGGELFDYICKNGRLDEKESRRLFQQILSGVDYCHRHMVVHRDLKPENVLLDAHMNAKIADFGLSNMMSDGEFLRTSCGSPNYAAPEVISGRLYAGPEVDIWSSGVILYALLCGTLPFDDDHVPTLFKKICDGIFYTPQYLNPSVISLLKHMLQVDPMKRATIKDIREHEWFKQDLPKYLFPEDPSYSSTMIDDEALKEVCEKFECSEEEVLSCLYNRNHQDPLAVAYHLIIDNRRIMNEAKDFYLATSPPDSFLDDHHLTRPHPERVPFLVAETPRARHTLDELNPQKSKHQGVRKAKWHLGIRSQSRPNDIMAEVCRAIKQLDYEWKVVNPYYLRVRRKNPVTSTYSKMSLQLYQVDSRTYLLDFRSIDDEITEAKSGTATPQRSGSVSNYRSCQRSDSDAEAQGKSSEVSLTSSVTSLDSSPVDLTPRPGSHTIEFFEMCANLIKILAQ
PRKAA1, sequence (P54619 whole entry partner): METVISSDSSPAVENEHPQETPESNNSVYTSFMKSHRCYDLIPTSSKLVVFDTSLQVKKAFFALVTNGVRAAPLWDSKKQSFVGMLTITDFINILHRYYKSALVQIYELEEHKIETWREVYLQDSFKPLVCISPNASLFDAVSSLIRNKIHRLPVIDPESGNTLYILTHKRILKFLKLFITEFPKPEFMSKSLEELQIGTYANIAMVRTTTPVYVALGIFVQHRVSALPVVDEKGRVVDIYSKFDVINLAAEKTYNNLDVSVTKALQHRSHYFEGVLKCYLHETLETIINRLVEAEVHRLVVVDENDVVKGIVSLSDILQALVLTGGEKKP
PRKAA1, sequence (Q9Y478 whole entry partner): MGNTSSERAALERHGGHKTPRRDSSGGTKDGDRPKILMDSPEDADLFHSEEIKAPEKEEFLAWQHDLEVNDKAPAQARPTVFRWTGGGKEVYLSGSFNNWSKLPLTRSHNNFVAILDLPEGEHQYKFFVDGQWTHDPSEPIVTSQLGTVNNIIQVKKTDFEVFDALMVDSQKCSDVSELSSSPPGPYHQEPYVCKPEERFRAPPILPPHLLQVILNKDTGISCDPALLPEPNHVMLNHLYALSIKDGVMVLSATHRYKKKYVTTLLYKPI

As for `CC(C)(CO)Nc1ccc(C(=O)Nc2cccc(S(=O)(=O)C3CCCC3)c2)c(N2CCC3(CC2)CC3)n1` [AM-0277], the remaining activity at 1 µM on p38 γ (setting [1]) was 100%; on CDK8 (setting [1]), 70%; on MAPK4 (setting [1]) it was 98%; on Tyk-2 (setting [1]), 100%; at FGFR1 (setting [1]) it was 94%; on LYN (setting [1]), 100%. Besides, at PRKAA1 (setting [1]), the remaining activity at 1 µM turned out to be 96%.
In the case of `CC(C)(C)NS(=O)(=O)c1cccc(NC(=O)c2ccc(S(=O)(=O)NC(C)(C)C)cc2N2CCC3(CC2)CC3)c1` [AM-1882], the remaining activity at 1 µM on p38 γ (setting [2]) came to 100%; on CDK8 (setting [2]), 34.5%; at MAPK4 (setting [2]), 99%; at Tyk-2 (setting [2]), 100%; at FGFR1 (setting [2]), 98%; on LYN (setting [2]), 99.5%. In addition, the remaining activity at 1 µM at PRKAA1 (setting [2]) is 100%.
`C[C@@H]1CN(c2cccc(NC(=O)c3ccc(NS(=O)(=O)CCO)cc3N3CCC4(CC3)CC4)n2)CCO1` [AM-5308]: the remaining activity at 1 µM at p38 γ (setting [3]) stood at 76.5%; on CDK8 (setting [3]) it was 87%; at MAPK4 (setting [3]) it was 81.5%; at Tyk-2 (setting [3]), 84%; on FGFR1 (setting [3]), 94.5%; on LYN (setting [3]), 86.5%. Besides, on PRKAA1 (setting [3]), the remaining activity at 1 µM came to 97%.
